According to ChEMBL document CHEMBL1132034, “6-oxa isosteres of anacardic acids as potent inhibitors of bacterial histidine protein kinase (HPK)-mediated two-component regulatory systems” (Bioorg Med Chem Lett, 1999):
Converted amounts (≈) assume the structure as drawn.

Assays:
Format in all cases: functional
[1] = system: Enterococcus faecalis; test: In vitro antibacterial activity against Enterococcus faecalis strain, OC3041
[2] = system: Bacillus subtilis; test: Ability to inhibit autophosphorylation of KinA and/or Sp0F TCS proteins from Bacillus subtilis
[3] = system: Enterococcus faecium; test: In vitro antibacterial activity against E. faecium(VR) strain, OC3312 Van R
[4] = system: Staphylococcus aureus; test: In vitro antibacterial activity against Staphylococcus aureus strain, ATCC 29213
[5] = system: Escherichia coli; test: Ability to inhibit autophosphorylation of NR11 and/or transphosphorylation of NR1 TCS proteins from Escherichia coli
[6] = system: Staphylococcus aureus; test: In vitro antibacterial activity against methicillin resistant Staphylococcus aureus (MRSA) strain, OC2089

Row | Compound | MIC [1] [µg/mL] | IC50 [2] [µM] | MIC [3] [µg/mL] | MIC [4] [µg/mL] | IC50 [5] [µM] | MIC [6] [µg/mL]
1 | CCCCCCCCOc1cccc(O)c1C(=O)O | 128 (≈ 481 µM) | 190 | 128 (≈ 481 µM) | 64 (≈ 240 µM) | > 500 | 64 (≈ 240 µM)
2 | CCCCCCCCCCCCCCCCCCOc1cccc(O)c1C(=O)O |  | 63 | 128 (≈ 315 µM) | 128 (≈ 315 µM) | 130 | 128 (≈ 315 µM)
3 | O=C(O)c1c(O)cccc1OCCC(c1ccccc1)(c1ccccc1)c1ccccc1 | 16 (≈ 37.7 µM) | 85 | 16 (≈ 37.7 µM) | 4 (≈ 9.42 µM) | 63 | 8 (≈ 18.8 µM)
4 | CCCCCCCCCCCCOc1cccc(O)c1C(=O)O | 8 (≈ 24.8 µM) | 4.4 | 8 (≈ 24.8 µM) | 8 (≈ 24.8 µM) | 17 | 8 (≈ 24.8 µM)
5 | CCCCCCCCCCCCCCOc1ccccc1C(=O)OC |  | > 500 |  |  | > 500 | 
6 | O=C(O)c1c(O)cccc1OCCCc1ccccc1 | > 128 | > 500 | > 128 | > 128 | > 500 | > 128
7 | CCCCCCCCCCCCCCCc1cccc(O)c1 |  | > 500 |  |  |  | 
8 | CC/C=C\CCCCCCCCCCOc1cccc(O)c1C(=O)O | 16 (≈ 45.9 µM) | 8 | 16 (≈ 45.9 µM) | 32 (≈ 91.8 µM) | 7.8 | 32 (≈ 91.8 µM)
9 | CCCCCCCCCCCCCCCc1cc(O)cc(O)c1 [CARDOL] |  | 235 |  |  |  | 
10 | O=C(O)c1c(O)cccc1OCCCCCc1ccccc1 | 128 (≈ 426 µM) | 380 | 128 (≈ 426 µM) | 64 (≈ 213 µM) | > 500 | 64 (≈ 213 µM)
11 | CCCCCCCCCCCCCCOc1cccc(O)c1C(=O)OC |  | > 500 |  |  | > 500 | 
12 | CCCCCCCCCCCCCCOc1ccccc1C(=O)O |  | > 500 |  |  | 89 | 
13 | CCCCCCCCCCCOc1cccc(O)c1C(=O)O | 16 (≈ 51.9 µM) | 25 | 16 (≈ 51.9 µM) | 8 (≈ 25.9 µM) | 44 | 16 (≈ 51.9 µM)
14 | CCCCCCCCCCCCCCOc1cccc(O)c1C(=O)O | 4 (≈ 11.4 µM) | 2.2 | 4 (≈ 11.4 µM) | > 64 | 5 | > 32
15 | CCCCCCCCCCCCOc1cccc(O)c1C(=O)OC |  | > 500 |  |  | > 500 | 
16 | CCCCCCCCCCCCCCCCOc1cccc(O)c1C(=O)O | 8 (≈ 21.1 µM) | 3 | 8 (≈ 21.1 µM) | > 128 | 1.5 | 128 (≈ 338 µM)
17 | CCCCCCCCCCCCCCCCCCCCOc1cccc(O)c1C(=O)O |  | > 500 | > 128 | > 128 | > 500 | > 128
